Measured values published in patent publication US12594267B2, “Capsid inhibitors for the treatment of HIV” (Gilead Sciences, Inc., priority 2018, dated 2026).
Like-named read-outs stand apart in the source and are kept apart here.

How the values were obtained:
[1] = Plasma PK after single oral administration in solution, dog; type: in vivo, Beagle Dog
Procedure: (§1) An oral formulation containing a compound of Formula (Ia) in […], 20% propylene glycol, 45 PEG 300, and 30% 0.01 N HCl was prepared. The formulation was orally administered to male rat, dog, cynomolgus monkey, and rhesus monkey according to the doses shown in Table 8 below.

[2] = Plasma PK after single oral administration in solution, cynomolgus monkey; type: in vivo
Procedure: as §1

[3] = Plasma PK after single oral administration in solution, summary over the four species; type: in vivo; conditions: male, Sprague-Dawley (rat), beagle (dog), range of species means (rat, dog, cynomolgus monkey, rhesus monkey)
Procedure: as §1

[4] = PK after oral administration in liquid-filled capsules in dogs; type: in vivo, beagle dogs; conditions: for bioavailability: oral, calculated based on AUC0-72h vs average IV AUC0-72h
Procedure: A single dose of the compound of Formula (Ia), formulated as liquid-filled capsules (LFC) containing either 100% glycerol monocaprylocaprate or 20% caprylocaproyl polyoxyl-8 glycerides and 80% glycerol monocaprylocaprate was administered orally at 7.5 mg fixed dose to 6 male beagle dogs (Table 9). At 100 mg/mL of the compound of Formula (Ia), the AUCinf increased with increasing glycerol monocaprylocaprate content. For the formulation with 100% glycerol monocaprylocaprate, the AUCinf at 50 mg/mL was higher than that at 100 mg/mL.
A single dose of the compound of Formula (Ia), formulated as liquid-filled capsules (LFC) containing 100% glycerol monocaprylocaprate, was administered orally at 7.5 mg fixed dose to 6 beagle dogs (Table S) and the pharmacokinetic (PK) profile was determined. […] Plasma concentrations of the compound of Formula (Ia) were maintained above the target trough concentration of 20 nM for at least 72 hours (3 days).

[5] = IV AUC used as reference for % F of capsules; set-up: species or system beagle dogs; conditions: beagle, dog, in vivo; IV at 1 mg/kg; reference for % F in Table 9; read-out: average IV AUC0-72h
[6] = tested on: HIV-1 clinical isolates; experiment: Antiviral activity against HIV-1 clinical isolates in PHA-stimulated human PBMCs; type: cell-based; conditions: 168 h, 7-day infection, RT activity readout, mean of triplicate
Procedure: The antiretroviral activity of the compound of Formula (Ia) was tested against a panel of 22 HIV-1 clinical isolates of HIV-1 and two HIV-2 isolates in freshly isolated, PHA-stimulated human peripheral blood mononuclear cells (PBMCs). The HIV-1 isolates included representative strains from subtypes A, B, C, D, E, F, G, N, O, AE, and AG. Following a 7-day infection, virus production was determined by measuring reverse transcriptase activity in cell-free culture supernatants.

[7] = male, beagle, plasma, dog, single oral 4.0 mg/kg, solution in 5% ethanol/20% propylene glycol/45% PEG 300/30% 0.01 N HCl, mean ± SD, n=3
[8] = male, plasma, single oral 4.0 mg/kg, solution in 5% ethanol/20% propylene glycol/45% PEG 300/30% 0.01 N HCl, mean ± SD, n=3
[9] = dog, plasma, fasted, pentagastrin-pretreated male beagle dogs, oral LFC 7.5 mg fixed dose, 20% caprylocaproyl polyoxyl-8 glycerides and 80% glycerol monocaprylocaprate, 100 mg/mL, mean ± SD, n=6
[10] = male, beagle, dog, plasma, po, 7.5 mg, fasted, pentagastrin-pretreated male beagle dogs, oral LFC 7.5 mg fixed dose, 100% glycerol monocaprylocaprate, 50 mg/mL, mean ± SD, n=6
[11] = male, beagle, dog, plasma, po, 7.5 mg, fasted, pentagastrin-pretreated male beagle dogs, oral LFC 7.5 mg fixed dose, 100% glycerol monocaprylocaprate, 100 mg/mL, mean ± SD, n=6

## CC(C)(C#Cc1ccc(-c2ccc(Cl)c3c(NS(C)(=O)=O)nn(CC(F)(F)F)c23)c([C@H](Cc2cc(F)cc(F)c2)NC(=O)Cn2nc(C(F)(F)F)c3c2C(F)(F)[C@@H]2C[C@H]32)n1)S(C)(=O)=O [Formula (Ia), N—((S)-1-(3-(4-chloro-3-(methylsulfonamido)-1-(2,2,2-trifluoroethyl)-1H-indazol-7-yl)-6-(3-methyl-3-(methylsulfonyl)but-1-yn-1-yl)pyridin-2-yl)-2-(3,5-difluorophenyl)ethyl)-2-((3bS,4aR)-5,5-difluoro-3-(trifluoromethyl)-3b,4,4a,5-tetrahydro-1H-cyclopropa[3,4]cyclopenta[1,2-c]pyrazol-1-yl)acetamide]
[1]; dogs, oral solution
  F % (bioavailability), in words: moderate
[1]; male, beagle, plasma, dog, single oral 4.0 mg/kg, same solution, calculated based on AUC0-72h, mean ± SD, n=3, read-out: F (oral bioavailability)
  bioavailability: 22.1 ± 8.4%
[1]; [7]
  AUC(0-inf): 16500 ± 10400 µM·h
  Cmax: 471 ± 203 µM
  Tmax: 10.7 ± 11.5 h
[1]; male, beagle, plasma, dog, single oral 4.0 mg/kg, solution in 5% ethanol/20% propylene glycol/45% PEG 300/30% 0.01 N HCl, mean ± SD, n=3, read-out: AUC0-72h
  AUC(0-t): 11400 ± 4320 µM·h
[2]; male, plasma, single oral 4.0 mg/kg, same solution, calculated based on AUC0-24h, mean ± SD, n=3, read-out: F (oral bioavailability)
  bioavailability: 2.2 ± 0.6%
[2]; [8]
  Cmax: 17.7 ± 5.6 µM
  Tmax: 8.7 ± 3.1 h
[2]; male, plasma, single oral 4.0 mg/kg, solution in 5% ethanol/20% propylene glycol/45% PEG 300/30% 0.01 N HCl, mean ± SD, n=3, read-out: AUC0-24h
  AUC(0-t): 298 ± 85 µM·h
[2]; oral solution
  F % (bioavailability), in words: low
[3]
  Tmax: 8.7 to 18.7 h
[4]; beagle dogs, oral liquid-filled capsules, 100% glycerol monocaprylocaprate, 7.5 mg fixed dose
  Time plasma concentrations maintained above the target trough concentration of 20 nM: at least 72 hours
[4]; beagle, dog, plasma, po, 7.5 mg, beagle dogs, oral liquid-filled capsules, 100% glycerol monocaprylocaprate, 7.5 mg fixed dose, 50 mg/mL (Table S), mean ± SD, n=6
  Tmax: 11 ± 10.1 h
[4]; beagle, dog, plasma, po, 7.5 mg, beagle dogs, oral liquid-filled capsules, 100% glycerol monocaprylocaprate, 7.5 mg fixed dose, 50 mg/mL (Table S), mean ± SD, n=6, read-out: AUC0-72h
  AUC(0-t): 5.07 ± 4.65 µM·h
[4]; beagle, dog, plasma, po, 7.5 mg, beagle dogs, oral liquid-filled capsules, 100% glycerol monocaprylocaprate, 7.5 mg fixed dose, 50 mg/mL (Table S), mean ± SD, n=6, read-out: AUC0-14d
  AUC(0-t): 108 ± 16 µM·h
[4]; dog, plasma, beagle dogs, oral liquid-filled capsules, 100% glycerol monocaprylocaprate, 7.5 mg fixed dose, 50 mg/mL (Table S), mean ± SD, n=6, read-out: C72h
  concentration at 72 h: 20.1 ± 24.4 nM
[4]; [9]
  AUC(0-inf): 1.3 ± 0.634 µM·h
  Cmax: 53.2 ± 16.7 nM
  Tmax: 7.7 ± 8 h
[4]; dog, plasma, fasted, pentagastrin-pretreated male beagle dogs, oral LFC 7.5 mg fixed dose, 20% caprylocaproyl polyoxyl-8 glycerides and 80% glycerol monocaprylocaprate, 100 mg/mL, mean ± SD, n=6, read-out: AUC0-72h
  AUC(0-t): 1.18 ± 0.575 µM·h
[4]; male, beagle, dog, plasma, 7.5 mg, as above (20%/80% LFC, 100 mg/mL), mean ± SD, n=6
  bioavailability: 11 ± 4%
[4]; male, beagle, dog, plasma, 7.5 mg, as above (100% glycerol monocaprylocaprate LFC, 50 mg/mL), mean ± SD, n=6
  bioavailability: 22 ± 10%
[4]; male, beagle, dog, plasma, 7.5 mg, as above (100% glycerol monocaprylocaprate LFC, 100 mg/mL), mean ± SD, n=6
  bioavailability: 16 ± 9%
[4]; [10]
  AUC(0-inf): 2.33 ± 1.35 µM·h
  Cmax: 82.7 ± 32.1 nM
  Tmax: 4 h
[4]; male, beagle, dog, plasma, po, 7.5 mg, fasted, pentagastrin-pretreated male beagle dogs, oral LFC 7.5 mg fixed dose, 100% glycerol monocaprylocaprate, 50 mg/mL, mean ± SD, n=6, read-out: AUC0-72h
  AUC(0-t): 2.18 ± 1.24 µM·h
[4]; [11]
  AUC(0-inf): 1.87 ± 1.19 µM·h
  Cmax: 71.2 ± 25.8 nM
  Tmax: 5 ± 1.1 h
[4]; male, beagle, dog, plasma, po, 7.5 mg, fasted, pentagastrin-pretreated male beagle dogs, oral LFC 7.5 mg fixed dose, 100% glycerol monocaprylocaprate, 100 mg/mL, mean ± SD, n=6, read-out: AUC0-72h
  AUC(0-t): 1.67 ± 1.04 µM·h
[5]
  AUC(0-t): 13.5 µM·h
[6]; Human immunodeficiency virus 1, BAL, PBMC, read-out: EC50 in human PBMCs, HIV-1 subtype B isolate Ba-L
  EC50: 0.04 nM
[6]; Human immunodeficiency virus 1, PBMC, read-out: EC50 in human PBMCs, HIV-1 CRF01_AE isolate 90TH_CM235
  EC50: 0.04 nM
